Test results from US20200289144A1, “DEVICE, METHOD AND FORMULATION FOR CHEMICALLY ASSISTED DISSECTION” (priority 2016, published 2020).

What was measured:
[1] = system: human MRC-5 fibroblasts; assay: Quantitative evaluation of cytotoxicity, viability assay using MU reagent; type: cell-based; details: for cytotoxicity (percentage of viability below 70% compared to culture medium): result in words
Protocol: Two experiments were performed. […] All samples were assayed in triplicate.
The cytotoxicity is defined by a viability of a test substance below 70% in compartion to culture medium.

[2] = system: human MRC-5 fibroblasts; assay: Qualitative evaluation of cytotoxicity by microscopic examination; details: mean ± SD of scores
Protocol: In vitro cytotoxicity of Mesna in human MRC-5 fibroblasts was evaluated. Two experiments were performed. The first one was performed with two doses of Mesna (5% and 10%) and NaCl (7.06 and 3.53%) and the second one was performed with three doses of Mesna (5, 10 and 20%) and the three corresponding doses of NaCl (7.06, 3.53 and 1.76%). All samples were assayed in triplicate. Evaluation of cytotoxicity was evaluated after the following times: T15 min, T30 min, T1h, T2h, T4h, T8h and T24h.
Cells were thawed according to the standard operating procedure No. TEC-005 and subcultured according to the standard operating procedure No. TEC-001. The cell line was cultured in 75 cm^2-flasks in appropriated culture medium.
A score was assigned based on observations.

[3] = Mesna purity before and after sterilization using X-rays and gamma irradiation; type: physicochemical
Source text: Mesna purity has been evaluated prior and after sterilization using X-rays and gamma irradiation.

SMILES | percentage of cell viability compared to culture medium (100% of viability) ([1]; 15 min (0.25 h) exposure) | percentage of cell viability compared to culture medium (100% of viability) ([1]; 30 min (0.5 h) exposure) | percentage of cell viability compared to culture medium (100% of viability) ([1]; 1 h exposure) | percentage of cell viability compared to culture medium (100% of viability) ([1]; 2 h exposure) | percentage of cell viability compared to culture medium (100% of viability) ([1]; 4 h exposure) | percentage of cell viability compared to culture medium (100% of viability) ([1]; 8 h exposure) | percentage of cell viability compared to culture medium (100% of viability) ([1]; 24 h exposure) | cytotoxicity score (microscopic examination) ([2]; 15 min exposure) | cytotoxicity score (microscopic examination) ([2]; 30 min exposure) | cytotoxicity score (microscopic examination) ([2]; 1 h exposure) | cytotoxicity score (microscopic examination) ([2]; 2 h exposure) | cytotoxicity score (microscopic examination) ([2]; 4 h exposure) | cytotoxicity score (microscopic examination) ([2]; 8 h exposure) | cytotoxicity score (microscopic examination) ([2]; 24 h exposure) | Mesna purity ([3]; After X-ray irradiation) | Mesna purity ([3]; After gamma irradiation) | Mesna purity ([3]; Prior irradiation) | cytotoxicity (percentage of viability below 70% compared to culture medium) [1]
O=S(=O)([O-])CCS.[Na+] [Mesna 20%, Sodium 2-mercaptoethanesulfonate] | −10.2% | −1.2% | 47.2% | 11.8% | 4.6% | 12.1% | 18.3% | 0.0 | 1.0 | 2.0 | 3.0 | 3.0 | 3.0 | 4.0 |  |  |  | 
[Cl-].[Na+] [NaCl 3.53%, NaCl] | 82.7% | 55.4% | 16.3% | 12.7% | 10.5% | 14.4% | 7.2% | 0.0 ± 0.0 | 0.0 ± 0.0 | 2 ± 1.4 | 3.0 ± 0.0 | 3.0 ± 0.0 | 3.0 ± 0.0 | 4 ± 0 |  |  |  | 
[Cl-].[Na+] [NaCl 7.06%, NaCl] | 45.2% | 25.3% | 12.7% | 12.3% | 10.8% | 14.6% | 7.3% | 0.0 ± 0.0 | 0.5 ± 0.7 | 2.5 ± 0.7 | 3.0 ± 0.0 | 3.0 ± 0.0 | 3.0 ± 0.0 | 4 ± 0 |  |  |  | 
O=S(=O)([O-])CCS.[Na+] [Pure lyophilized Mesna, Sodium 2-mercaptoethanesulfonate] |  |  |  |  |  |  |  |  |  |  |  |  |  |  | 89.3 | 89.1 | 89.4 | 
O=S(=O)([O-])CCS.[Na+] [Mesna 5%, Sodium 2-mercaptoethanesulfonate] | 66% | 47.6% | 50.4% | 39.7% | 12% | 3.4% | 1.4% | 0.0 ± 0.0 | 1.5 ± 0.7 | 1.5 ± 0.7 | 3.0 ± 0.0 | 3.0 ± 0.0 | 3.0 ± 0.0 | 4 ± 0 |  |  |  | 
Oc1ccccc1 [Phenol 0.5%, Phenol] | 10.9% | 13.2% | 11.3% | 13.6% | 10.4% | 14.2% | 8.5% | 3.0 ± 0.0 | 3.0 ± 0.0 | 3.0 ± 0.0 | 3.0 ± 0.0 | 3.0 ± 0.0 | 3.0 ± 0.0 | 4.0 ± 0.0 |  |  |  | observed at all time points
O=S(=O)([O-])CCS.[Na+] [Mesna powder, Sodium 2-mercaptoethanesulfonate] |  |  |  |  |  |  |  |  |  |  |  |  |  |  | 89.0 | 88.9 | 89.6 | 
O=S(=O)([O-])CCS.[Na+] [Mesna 10%, Sodium 2-mercaptoethanesulfonate] | 62.3% | 54.8% | 20.6% | 4.1% | 3.2% | 3.3% | 1.1% | 0.0 ± 0.0 | 0.0 ± 0.0 | 1.0 ± 0.0 | 3.0 ± 0.0 | 3.0 ± 0.0 | 3.0 ± 0.0 | 4 ± 0 |  |  |  | 
[Cl-].[Na+] [NaCl 1.76%, NaCl] | 88.8% | 102.6% | 95% | 75.5% | 44% | 23.1% | 8% | 0.0 | 0.0 | 1.0 | 2.0 | 3.0 | 3.0 | 4.0 |  |  |  | not cytotoxic after 2 hours
